In series [1] the test system is Human Dermal Fibroblast (HDF) cell line. Put plainly: Cell viability using MTT assay. Type of series: cell-based. The following applies: 24 h, 0.1-100 µM, read-out: IC50 against fibroblast cells. On the procedure:
The synthesized compounds were screened for their cytotoxic activities against fibroblast cell lines at different concentrations for 24 h using MTT assay. […] Human Dermal Fibroblast (HDF) cell line was bought from the American Type Culture Collection (ATCC; Minnesota, USAHB-8065). It was cultured in Park Memorial Institute (RPMI-1640) culture media with glutamine 2 mM (bio west, Nampa, cat. no. L0498-500), 10% fetal bovine serum (PAA, Pasching Austria, cat. no. A11-151) and penicillin with streptomycin 1% (Lonza, Verviers, Belgium, cat. no. DE17-602E). The HDF cells were grown in 50 cm^2 flask (Greinerbio-one GmbH Maybach-str. 272636 Frickenhausen, Germany) and preserved in a typical humidified incubator supplied with 5% CO2, 95% air at 37 °C (New Brunswick Scientific-Innova co-170). Cells were washed with cold phosphate-buffered saline, trypsinized, harvested and centrifuged to form cell pellets. The cultured HDFa were plated in 96 well microplates at a concentration of 5 × 10^4 cells per well 24 h before the MTT assay to allow microplate adherence. MTT Reagent was provided, prepared for use, and acquired from Biospes, China, Cat n#BAR1005-1. According to the manufacturer protocol, the cultured cells were presented with different concentrations of the assessed agents. 20 μL of MTT solution was filled with each well. For 4 h, the plate was kept at 37 °C. After incubation, 100 μL of formazan diluent buffer (Biospes, Chongqing, China, Cat n#BAR1005-1) was poured into each well. ELISA plate reader (Stat Fax 2200, Awareness Technologies, Palm City, FL, USA) measured color absorbance at 540 nm. Three readings were taken on three different days and averaged for each sample. At last, cell survival was determined according to the following equation: %cell survival=Asample/Acontrol×100% Acontrol is the absorbance of the cell culture after adding MTT and formazan buffer, but without treatment by any drug candidate. […] IC50 values were then calculated by curve-fitting involving non-linear regression. […]
In general terms: Tetrazolium assays rely on reduction of a dye to a coloured formazan, in cell work by metabolically active cells.

Series [2] relates to COX-1. Put plainly: Western blot analysis of COX-1. To be noted: versus untreated control. Type of series: cell-based. The source says:
(§1) The anti-inflammatory activities of compounds HI and HL were further confirmed by Western blotting analysis of COX-1/COX-2.
(§2) For validating the anti-inflammatory pathway at the protein expression level, we used the immunoblotting (Western blot) technique.

Series [3] relates to COX-2. As to the kind of experiment: Western blot analysis of COX-2. Type of series: cell-based. To be noted: versus untreated control.
From the text: as §1, §2
On the technique in general: In western blotting, separated proteins are transferred to a membrane and probed.

Series [4] has as its target T1, ovine COX-1 (Ovis aries, UniProt P05979).
T1 sequence (P05979 25-600): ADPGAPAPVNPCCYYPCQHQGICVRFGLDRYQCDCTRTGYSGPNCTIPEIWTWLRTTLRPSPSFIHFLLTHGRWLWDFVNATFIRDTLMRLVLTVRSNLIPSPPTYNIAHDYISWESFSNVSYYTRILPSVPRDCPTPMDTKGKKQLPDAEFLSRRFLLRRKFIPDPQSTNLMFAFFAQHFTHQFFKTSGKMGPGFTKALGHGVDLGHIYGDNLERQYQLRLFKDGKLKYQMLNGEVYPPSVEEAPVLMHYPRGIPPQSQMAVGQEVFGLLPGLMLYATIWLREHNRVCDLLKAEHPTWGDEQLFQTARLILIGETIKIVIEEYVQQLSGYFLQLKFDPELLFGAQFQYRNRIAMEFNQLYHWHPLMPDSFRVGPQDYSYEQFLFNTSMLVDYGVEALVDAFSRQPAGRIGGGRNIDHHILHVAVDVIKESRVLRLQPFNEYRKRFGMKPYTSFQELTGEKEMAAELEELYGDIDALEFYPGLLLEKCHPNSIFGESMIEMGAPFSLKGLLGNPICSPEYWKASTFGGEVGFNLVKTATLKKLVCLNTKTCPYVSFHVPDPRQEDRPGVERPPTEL
As to the kind of experiment: In vitro COX-1 isozyme inhibition assay (EIA/ELISA kit, Cayman). On the technique in general: An ELISA detects its analyte on a solid surface through an enzyme-linked reagent.

For series [5], the target named is T2, human recombinant COX-2 (Homo sapiens, UniProt P35354).
T2 sequence (P35354 18-604): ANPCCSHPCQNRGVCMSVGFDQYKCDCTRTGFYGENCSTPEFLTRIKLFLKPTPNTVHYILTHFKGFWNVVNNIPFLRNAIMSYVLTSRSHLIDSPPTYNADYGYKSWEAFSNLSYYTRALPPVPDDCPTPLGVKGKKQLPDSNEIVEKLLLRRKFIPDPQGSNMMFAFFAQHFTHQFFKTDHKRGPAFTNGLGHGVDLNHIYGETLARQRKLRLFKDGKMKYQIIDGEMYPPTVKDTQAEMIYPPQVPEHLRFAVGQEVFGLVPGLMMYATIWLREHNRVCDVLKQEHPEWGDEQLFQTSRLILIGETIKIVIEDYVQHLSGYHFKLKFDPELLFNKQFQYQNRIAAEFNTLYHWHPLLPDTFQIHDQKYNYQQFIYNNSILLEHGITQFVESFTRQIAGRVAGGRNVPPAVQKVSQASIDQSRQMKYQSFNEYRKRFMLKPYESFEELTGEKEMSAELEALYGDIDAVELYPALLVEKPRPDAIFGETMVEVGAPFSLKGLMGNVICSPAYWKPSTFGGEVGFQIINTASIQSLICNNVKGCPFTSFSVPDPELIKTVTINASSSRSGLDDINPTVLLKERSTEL
As to the kind of experiment: In vitro COX-2 isozyme inhibition assay (EIA/ELISA kit, Cayman). To be noted: for COX-2 SI (COX-1 IC50/COX-2 IC50): selectivity index.

Series [6] in a line: Solubility examined in various solvents. The following applies: organic solvents. Type of series: physicochemical. The source says: . H% = 7.46 (7.51); N% = 8.63 (8.55), calc. (found), respectively (Table 1).

Molecules are shown by their SMILES.

As usually defined, the IC50 is the concentration needed to halve the response being measured. A word on the melting point: it is the temperature of the solid-liquid transition. On to `CC(C)Cc1ccc(C(C)C(=O)NN)cc1` (stereo not drawn) [HI, 2-(4-Isobutylphenyl) Propane Hydrazide], for which the melting point is 85 °C. Moreover, the IC50 in series [1] amounted to 3.9 µM. The “COX-1 protein level by Western blot” value in series [2] was “downregulation”. Moreover, the “COX-2 protein level by Western blot” value in series [3] was “downregulation”. The molecule further showed a half-inhibitory concentration (IC50) in series [4] of 7.5 µM. For the same molecule, in series [5], the IC50 is 4.3 µM and the “COX-2 SI (COX-1 IC50/COX-2 IC50)” value is 1.7.

As for `CC(C)Cc1ccc(C(C)C(=O)NN=Cc2ccccc2O)cc1` (stereo not drawn) [HL], the IC50 in series [1] stood at 4.13 µM; in series [4], 8.6 µM; in series [5], 4.9 µM. Besides, the “COX-1 protein level by Western blot” value in series [2] was “downregulation”. In series [3], the “COX-2 protein level by Western blot” value is listed as “downregulation”. Besides, the Solubility in solvents entry in series [6] was “soluble in DMSO, DMF, ethanol, methanol, and acetonitrile”. Besides, in series [5], the “COX-2 SI (COX-1 IC50/COX-2 IC50)” value worked out at 1.8.

With `CC(C)Cc1ccc(C(C)C(=O)O)cc1` (stereo not drawn) [Ibuprofen, reference compound], the IC50 in series [1] is 30.6 µM.
